Patent US6706664B1, “Benzoxazole compounds, process for the preparation thereof and herbicides” (UBE Industries, Ltd., priority 1999, dated 2004)

Legend:
Parameters in all cases: key: 0: normal development; 1: Less damaged; 2: Slightly damaged; 3: Moderately damaged; 4: Severely damaged; 5: All killed
[1] = tested on: wheat; test: Soil treatment test for upland field; assay type: in vivo; settings: 500 g/ha, glass house 25° C., 3 weeks
Procedure, shortened: (§1)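 Visual 0–5 damage rating recorded 3 weeks after a pre-emergence soil spray of 500 g/ha on seeded Ube alluvial soil, with plants held in a glasshouse near 25° C.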

[2] = tested on: cotton; test: Soil treatment test for upland field; assay type: in vivo; settings: 500 g/ha, glass house 25° C., 3 weeks
Procedure, shortened: as §1

[3] = tested on: solgum; test: Soil treatment test for upland field; assay type: in vivo; settings: 500 g/ha, glass house 25° C., 3 weeks
Procedure, shortened: as §1

[4] = tested on: soybean; test: Soil treatment test for upland field; assay type: in vivo; settings: 500 g/ha, glass house 25° C., 3 weeks
Procedure, shortened: as §1

[5] = tested on: sugar beat; test: Soil treatment test for upland field; assay type: in vivo; settings: 500 g/ha, glass house 25° C., 3 weeks
Procedure, shortened: as §1

[6] = tested on: corn; test: Soil treatment test for upland field; assay type: in vivo; settings: 500 g/ha, glass house 25° C., 3 weeks
Procedure, shortened: as §1

[7] = tested on: Large crabgrass; test: Soil treatment test for upland field; assay type: in vivo, Digitaria adscendens; settings: 500 g/ha, glass house 25° C., 3 weeks
Procedure, shortened: as §1

[8] = tested on: green foxtail; test: Foliar spread test for upland field; assay type: in vivo, Setaria viridis; settings: foliar spray 500 ppm, 3 weeks, rank vs non-treated
Procedure, shortened: (§2)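 Two-week-old glasshouse seedlings on volcanic ash soil were treated by foliar spray at 500 ppm, with 0.5% surfactant in the diluent. Effects were graded visually after three weeks, from 0 for no injury to 5 for complete kill.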

[9] = tested on: common lambsquartes; test: Soil treatment test for upland field; assay type: in vivo, Chenopodium album; settings: 500 g/ha, glass house 25° C., 3 weeks
Procedure, shortened: as §1

[10] = tested on: livid amaranth; test: Soil treatment test for upland field; assay type: in vivo, Amaranthus lividus; settings: 500 g/ha, glass house 25° C., 3 weeks
Procedure, shortened: as §1

[11] = tested on: livid amaranth; test: Foliar spread test for upland field; assay type: in vivo, Amaranthus lividus; settings: foliar spray 500 ppm, 3 weeks, rank vs non-treated
Procedure, shortened: as §2

[12] = tested on: Large crabgrass; test: Foliar spread test for upland field; assay type: in vivo, Digitaria adscendens; settings: foliar spray 500 ppm, 3 weeks, rank vs non-treated
Procedure, shortened: as §2

[13] = tested on: green foxtail; test: Soil treatment test for upland field; assay type: in vivo, Setaria viridis; settings: 500 g/ha, glass house 25° C., 3 weeks
Procedure, shortened: as §1

[14] = tested on: barnyardgrass; test: Foliar spread test for upland field; assay type: in vivo, Echinochloa crusgalli; settings: foliar spray 500 ppm, 3 weeks, rank vs non-treated
Description: (§3) (0: normal development, 1: Less damaged, 2: Slightly damaged, 3: Moderately damaged, 4: Severely damaged, 5: All killed).
(§4) Wagner pots, each having an area of 1/5000 are, were packed with volcanic ash soil and then each seed of corn, soybean, cotton, wheat, solgum, sugar beat, Large crabgrass, barnyardgrass, green foxtail, blackgrass, annual bluegrass, common lambsquartes, livid amaranth, velvetleaf and morning glory was planted, covered with soil and grown in a glass house at an average temperature of […] for about 2 weeks.
(§5) Each wettable powder of the desired compounds (I) shown in Table 1 prepared in accordance with Example 2 was diluted to 500 ppm with water containing a surfactant (0.5%) and then uniformly sprayed on the above respective plants.
(§6) After these plants were controlled in a glass house at an average temperature of 25° C. for 3 weeks, the herbicidal effects thereof were investigated.
(§7) The herbicidal effects were evaluated according to the evaluation method described in the above (1).

[15] = tested on: common lambsquartes; test: Foliar spread test for upland field; assay type: in vivo, Chenopodium album; settings: foliar spray 500 ppm, 3 weeks, rank vs non-treated
Procedure, shortened: as §2

[16] = tested on: velvetleaf; test: Soil treatment test for upland field; assay type: in vivo, Abutilon theophrasti; settings: 500 g/ha, glass house 25° C., 3 weeks
Procedure, shortened: as §1

[17] = tested on: blackgrass; test: Soil treatment test for upland field; assay type: in vivo, Alopecurus aegualis; settings: 500 g/ha, glass house 25° C., 3 weeks
Procedure, shortened: as §1

[18] = tested on: blackgrass; test: Foliar spread test for upland field; assay type: in vivo, Alopecurus aegualis; settings: foliar spray 500 ppm, 3 weeks, rank vs non-treated
Description: as §3, §4, §5, §6, §7

[19] = tested on: wheat; test: Foliar spread test for upland field; assay type: in vivo; settings: foliar spray 500 ppm, 3 weeks, rank vs non-treated
Procedure, shortened: (§8)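 Crops and weeds grown about 2 weeks in volcanic ash soil in a glasshouse, then sprayed with wettable-powder formulations diluted to 500 ppm in water with 0.5% surfactant. After 3 weeks at 25 °C, injury scored visually 0 (normal) to 5 (all killed).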

[20] = tested on: cotton; test: Foliar spread test for upland field; assay type: in vivo; settings: foliar spray 500 ppm, 3 weeks, rank vs non-treated
Procedure, shortened: as §8

[21] = tested on: solgum; test: Foliar spread test for upland field; assay type: in vivo; settings: foliar spray 500 ppm, 3 weeks, rank vs non-treated
Procedure, shortened: as §8

[22] = tested on: soybean; test: Foliar spread test for upland field; assay type: in vivo; settings: foliar spray 500 ppm, 3 weeks, rank vs non-treated
Procedure, shortened: as §8

[23] = tested on: sugar beat; test: Foliar spread test for upland field; assay type: in vivo; settings: foliar spray 500 ppm, 3 weeks, rank vs non-treated
Procedure, shortened: as §8

[24] = tested on: corn; test: Foliar spread test for upland field; assay type: in vivo; settings: foliar spray 500 ppm, 3 weeks, rank vs non-treated
Procedure, shortened: as §8

[25] = tested on: barnyardgrass; test: Soil treatment test for upland field; assay type: in vivo, Echinochloa crusgalli; settings: 500 g/ha, glass house 25° C., 3 weeks
Procedure, shortened: as §1

[26] = tested on: annual bluegrass; test: Foliar spread test for upland field; assay type: in vivo, Poa annua; settings: foliar spray 500 ppm, 3 weeks, rank vs non-treated
Procedure, shortened: as §2

[27] = tested on: velvetleaf; test: Foliar spread test for upland field; assay type: in vivo, Abutilon theophrasti; settings: foliar spray 500 ppm, 3 weeks, rank vs non-treated
Procedure, shortened: as §2

[28] = tested on: morning glory; test: Foliar spread test for upland field; assay type: in vivo, Ipomoea spps.; settings: foliar spray 500 ppm, 3 weeks, rank vs non-treated
Procedure, shortened: as §2

[29] = tested on: annual bluegrass; test: Soil treatment test for upland field; assay type: in vivo, Poa annua; settings: 500 g/ha, glass house 25° C., 3 weeks
Procedure, shortened: as §1

With `CCC(Oc1ccc(F)c(C(F)(F)F)c1)c1nc2ccc(C(F)(F)F)cc2o1` (stereo not shown) [Compound 93] the “Effects Wheat” value [1] was 0, the “Effects Cotton” value [2] was 1 and the “Effects Solgum” value [3] was 1. For the same compound, the “Effects Soybean” value [4] was 2, the “Effects Sugar beat” value [5] was 5 and the “Effects Corn” value [6] was 1. The “Effects Large crabgrass” value [7] was 5, the “Effects Green foxtail” value [8] was 3 and the “Effects Common lambsquarters” value [9] was 3. For the same compound, the “Effects Livid amaranth” value [10] was 5, the “Effects Livid amaranth” value [11] was 4 and the “Effects Large crabgrass” value [12] was 3. The “Effects Green foxtail” value [13] was 5, the “Effects Barnyardgrass” value [14] was 2 and the “Effects Common lambsquarters” value [15] was 4. The “Effects Velvetleaf” value [16] was 2, the “Effects Blackgrass” value [17] was 3 and the “Effects Blackgrass” value [18] was 1. For the same compound, the “Effects Wheat” value [19] was 2, the “Effects Cotton” value [20] was 3 and the “Effects Solgum” value [21] was 1. The “Effects Soybean” value [22] was 4, the “Effects Sugar beat” value [23] was 4 and the “Effects Corn” value [24] was 2. For the same compound, the “Effects Barnyardgrass” value [25] was 4, the “Effects Annual bluegrass” value [26] was 1 and the “Effects Velvetleaf” value [27] was 2. For the same compound, the “Effects Morning glory” value [28] was 3 and the “Effects Annual bluegrass” value [29] was 5.
With `CCCC(Oc1ccc(F)c(C(F)(F)F)c1)c1nc2ccc(C(F)(F)F)cc2o1` (stereo not shown) [Compound 101] the “Effects Wheat” value [1] was 0, the “Effects Cotton” value [2] was 0 and the “Effects Solgum” value [3] was 1. The “Effects Soybean” value [4] was 0, the “Effects Sugar beat” value [5] was 2 and the “Effects Corn” value [6] was 0. For the same compound, the “Effects Large crabgrass” value [7] was 5, the “Effects Green foxtail” value [8] was 2 and the “Effects Common lambsquarters” value [9] was 4. For the same compound, the “Effects Livid amaranth” value [10] was 5, the “Effects Livid amaranth” value [11] was 4 and the “Effects Large crabgrass” value [12] was 2. For the same compound, the “Effects Green foxtail” value [13] was 5, the “Effects Barnyardgrass” value [14] was 1 and the “Effects Common lambsquarters” value [15] was 4. For the same compound, the “Effects Velvetleaf” value [16] was 2, the “Effects Blackgrass” value [17] was 3 and the “Effects Blackgrass” value [18] was 1. The “Effects Wheat” value [19] was 1, the “Effects Cotton” value [20] was 2 and the “Effects Solgum” value [21] was 1. For the same compound, the “Effects Soybean” value [22] was 3, the “Effects Sugar beat” value [23] was 2 and the “Effects Corn” value [24] was 1. For the same compound, the “Effects Barnyardgrass” value [25] was 3, the “Effects Annual bluegrass” value [26] was 1 and the “Effects Velvetleaf” value [27] was 3. The “Effects Morning glory” value [28] was 3 and the “Effects Annual bluegrass” value [29] was 5.
In the case of `CCC(Oc1ccc(F)c(C(F)(F)F)c1)c1nc2cc(I)ccc2o1` (stereo not shown) [Compound 171], the “Effects Wheat” value [1] is reported as 1, the “Effects Cotton” value [2] is reported as 0 and the “Effects Solgum” value [3] is reported as 1. For the same compound, the “Effects Soybean” value [4] was 0, the “Effects Sugar beat” value [5] was 5 and the “Effects Corn” value [6] was 0. For the same compound, the “Effects Large crabgrass” value [7] was 5, the “Effects Green foxtail” value [8] was 5 and the “Effects Common lambsquarters” value [9] was 2. For the same compound, the “Effects Livid amaranth” value [10] was 5, the “Effects Livid amaranth” value [11] was 5 and the “Effects Large crabgrass” value [12] was 3. For the same compound, the “Effects Green foxtail” value [13] was 5, the “Effects Barnyardgrass” value [14] was 1 and the “Effects Common lambsquarters” value [15] was 4. The “Effects Blackgrass” value [17] was 1, the “Effects Blackgrass” value [18] was 1 and the “Effects Wheat” value [19] was 2. The “Effects Cotton” value [20] was 4, the “Effects Solgum” value [21] was 2 and the “Effects Soybean” value [22] was 3. For the same compound, the “Effects Sugar beat” value [23] was 3, the “Effects Corn” value [24] was 2 and the “Effects Barnyardgrass” value [25] was 2. The “Effects Annual bluegrass” value [26] was 3, the “Effects Velvetleaf” value [27] was 3 and the “Effects Morning glory” value [28] was 5. For the same compound, the “Effects Annual bluegrass” value [29] was 5.
`CCC(Oc1cccc(OC(F)(F)F)c1)c1nc2cc(Cl)ccc2o1` (stereo not shown) [Compound 447] was tested, and the “Effects Wheat” value [1] was 1, the “Effects Cotton” value [2] was 0 and the “Effects Solgum” value [3] was 1. For the same compound, the “Effects Soybean” value [4] was 0, the “Effects Sugar beat” value [5] was 5 and the “Effects Corn” value [6] was 2. The “Effects Large crabgrass” value [7] was 5, the “Effects Green foxtail” value [8] was 2 and the “Effects Common lambsquarters” value [9] was 3. The “Effects Livid amaranth” value [10] was 5, the “Effects Livid amaranth” value [11] was 5 and the “Effects Large crabgrass” value [12] was 3. For the same compound, the “Effects Green foxtail” value [13] was 5, the “Effects Barnyardgrass” value [14] was 1 and the “Effects Common lambsquarters” value [15] was 5. The “Effects Velvetleaf” value [16] was 2, the “Effects Blackgrass” value [17] was 5 and the “Effects Blackgrass” value [18] was 2. For the same compound, the “Effects Wheat” value [19] was 2, the “Effects Cotton” value [20] was 4 and the “Effects Solgum” value [21] was 3. The “Effects Soybean” value [22] was 5, the “Effects Sugar beat” value [23] was 5 and the “Effects Corn” value [24] was 3. The “Effects Barnyardgrass” value [25] was 4, the “Effects Annual bluegrass” value [26] was 2 and the “Effects Velvetleaf” value [27] was 2. The “Effects Morning glory” value [28] was 5 and the “Effects Annual bluegrass” value [29] was 5.
